From patent US8846620B2, “Resorption enhancers as additives to improve the oral formulation of non-anticoagulant sulfated polysaccharides” (Baxter International Inc., priority 2011, dated 2014) come the findings set out here.

One series has as its system CaCo-2 cell layer. Kind of series: Condition of the cell layer by transepithelial electrical resistance (TEER) in CaCo-2 screening. Type of series: cell-based, human. The procedure: The bioavailability of NASPs in combination with gastrointestinal epithelial barrier permeation enhancers of interest were studied using the CaCo-2 cell model screening. This method utilizes a human colon carcinoma cell line that expresses a wide range of transporter proteins on its cell membranes. Cell layers are grown on a membrane surface that separates two compartments (24-well plate). An example of the experimental setup for these experiments is illustrated in FIG. 1. Selected NASP and gastrointestinal epithelial barrier permeation enhancer samples were dissolved in RPMI cell medium at a concentration of 1 mg/mL and applied onto the cells in the apical compartment. Cells were incubated at 37° C. in 5% CO2. Medium samples were removed from the basolateral and apical compartment at different time points. The condition of the cell layer was monitored by measurement of the transepithelial electrical resistance (TEER). Samples were analyzed by thrombin generation assay (CAT). NASP concentration was calculated based on activity from CAT assay. Experimental details of thrombin generation assays and other blood coagulation assays are described in U.S. patent application Ser. No. 11/140,504, filed on May 27, 2005, now U.S. Pat. No. 7,767,654, and U.S. patent application Ser. No. 13/006,396, filed on Jan. 13, 2011, the disclosures of which is herein incorporated by reference. […]

The test system of another series is CaCo-2 cell model. Nature of the series: CaCo-2 cell model bioavailability / resorption screening of NASPs with permeation enhancers. Type of series: in vitro ADME, human. The conditions noted are these: for Average Percent Resorption at 8 hours: Table 5; for basolateral concentrations in the presence of a gastrointestinal epithelial barrier permeation enhancer: compared with absence of enhancer, figures. The procedure:
The bioavailability of NASPs in combination with gastrointestinal epithelial barrier permeation enhancers of interest were studied using the CaCo-2 cell model screening. This method utilizes a human colon carcinoma cell line that expresses a wide range of transporter proteins on its cell membranes. Cell layers are grown on a membrane surface that separates two compartments (24-well plate). An example of the experimental setup for these experiments is illustrated in FIG. 1. Selected NASP and gastrointestinal epithelial barrier permeation enhancer samples were dissolved in RPMI cell medium at a concentration of 1 mg/mL and applied onto the cells in the apical compartment. Cells were incubated at 37° C. in 5% CO2. Medium samples were removed from the basolateral and apical compartment at different time points. The condition of the cell layer was monitored by measurement of the transepithelial electrical resistance (TEER). Samples were analyzed by thrombin generation assay (CAT). NASP concentration was calculated based on activity from CAT assay. Experimental details of thrombin generation assays and other blood coagulation assays are described in U.S. patent application Ser. No. 11/140,504, filed on May 27, 2005, now U.S. Pat. No. 7,767,654, and U.S. patent application Ser. No. 13/006,396, filed on Jan. 13, 2011, the disclosures of which is herein incorporated by reference.
All NASP and gastrointestinal epithelial barrier permeation enhancer samples were diluted in such a way that the sample concentration was in the range of increasing procoagulant activity. Based on the initial load concentration values, apical and basolateral concentrations were determined at 2 hour increments (e.g., 2 hours, 4 hours, 6 hours, 8 hours, including 24 hours). Based on the determined basolateral concentrations, the percent resorption was determined for each combination of compounds (i.e., NASP and gastrointestinal epithelial barrier permeation enhancers).
FIGS. 4-8 illustrate resorption of some natural NASPs of interest in Caco-2 cell models as determined by TGA and liquid chromatography/mass spectrometry in combination with different gastrointestinal epithelial barrier permeation enhancers. FIGS. 9 and 10 illustrate resorption of some synthetic NASPs of interest in Caco-2 cell models as determined by TGA and liquid chromatography/mass spectrometry in combination with different gastrointestinal epithelial barrier permeation enhancers.

Setting [1] is: Bromelain/Chitosan 0.5 mg/mL: 3%.
[2] abbreviates: in the presence of bromelain at 8 hours.
The mark [3] stands for this setting: in the presence of deoxycholate at 8 hours.

For bromelain, the “transepithelial electrical resistance after treatment with the permeation enhancer alone” value with CaCo-2 cell layer (enhancer alone, no NASP) was “recovery of the transepithelial electrical resistance”.
Turning to “Sulfated 6-Carboxyicodextrin [Sulfated 6-Carboxyicodextrin 24 kD]”, the “Average Percent Resorption at 8 hours” value is 10.0% in the series on CaCo-2 cell model (Bromelain 0.5 mg/mL); 36.8% with CaCo-2 cell model (setting [1]); 2.6% in the series on CaCo-2 cell model (Chitosan 3%); 4.9% in the series on CaCo-2 cell model (Deoxycholate 0.06%); 14.7% in the series with CaCo-2 cell model (Deoxycholate 0.08%); 1.6% with CaCo-2 cell model (No enhancer).
For Sulfated Maltopentose, the “transepithelial electrical resistance after removal of the permeation enhancer and the NASP” value in the series with CaCo-2 cell layer (after removal of enhancer and maltopentaose) was “increased”. Further, the “Average Percent Resorption at 8 hours” value in the series with CaCo-2 cell model (Bromelain 0.5 mg/mL) is recorded as 48.6%; in the series on CaCo-2 cell model (setting [1]), 158.8%; in the series on CaCo-2 cell model (Chitosan 3%), 35.7%; in the series with CaCo-2 cell model (Deoxycholate 0.06%), 67.4%; with CaCo-2 cell model (Deoxycholate 0.08%), 113.2%; in the series with CaCo-2 cell model (No enhancer), 0%. For the same substance, the “Average Percent Resorption at 8 hours” value in the series with CaCo-2 cell model (Sodium Caprate 12 mM) is listed as 13.1%. Moreover, in the series with CaCo-2 cell model, the “basolateral concentrations in the presence of a gastrointestinal epithelial barrier permeation enhancer” value is reported as “increased”. The “resorption in Caco-2 cell models” value in the series on CaCo-2 cell model (setting [2]) is “increased substantially”; with CaCo-2 cell model (in the presence of chitosan), “strong increased resorption”; with CaCo-2 cell model (setting [3]) it was “increased substantially”; with CaCo-2 cell model (in the presence of sodium caprate), “strong increased resorption”.
In the case of Sulfated β-cyclodextrin, the “Average Percent Resorption at 8 hours” value is given as 24.7% in the series with CaCo-2 cell model (Bromelain 0.5 mg/mL); 59.8% in the series with CaCo-2 cell model (setting [1]); 15.6% in the series with CaCo-2 cell model (Chitosan 3%); 20.6% with CaCo-2 cell model (Deoxycholate 0.06%); 36.1% in the series with CaCo-2 cell model (Deoxycholate 0.08%); 0% in the series on CaCo-2 cell model (No enhancer). Further, the “Average Percent Resorption at 8 hours” value in the series with CaCo-2 cell model (Sodium Caprate 12 mM) was found to be 19.3%. In addition, the “basolateral concentrations in the presence of a gastrointestinal epithelial barrier permeation enhancer” value with CaCo-2 cell model is on record as “increased”. Besides, the “resorption in Caco-2 cell models” value with CaCo-2 cell model (setting [2]), in the series on CaCo-2 cell model (setting [3]) and in the series on CaCo-2 cell model (in the presence of sodium caprate at 8 hours) was “increased substantially” each time.
With “Sulfated 6-Carboxyicodextrin [Sulfated 6-Carboxyicodextrin 14 kD]”, the “Average Percent Resorption at 8 hours” value was determined as 17.7% in the series with CaCo-2 cell model (Bromelain 0.5 mg/mL); 44.5% with CaCo-2 cell model (setting [1]); 5.4% in the series on CaCo-2 cell model (Chitosan 3%); 27.2% in the series on CaCo-2 cell model (Deoxycholate 0.08%); 3.8% with CaCo-2 cell model (No enhancer).
